Laboratory results reported in patent publication US20240091203A1, “METHODS FOR TREATING NON-OBSTRUCTIVE HYPERTROPHIC CARDIOMYOPATHY” (Cytokinetics, Incorporated, priority 2022, published 2024).
Like-named read-outs stand apart in the source and are kept apart here.

Assays:
[1] = tested on: healthy adults; set-up: species or system human; settings: in vivo
From the text: Study Overview and Ethics. The study used a randomized, placebo-controlled, single-ascending dose (SAD) and multiple-ascending dose (MAD) design (FIG. 2). […] Dose escalation was to be stopped when this range was achieved, or when a non-tolerated dose was identified, if earlier.
Participants and Treatments. To be eligible for this study, participants were to be healthy adults aged 18 to 55 years, with body mass index of 18.0 to 32.0 kg/m^2, normal electrocardiogram (ECG) and clinical laboratory values, or only minor abnormalities that were deemed not clinically significant. Participants also had to have normal cardiac structure and function, with LVEF ≥60% for the first 4 SAD cohorts, ≥65% for subsequent SAD cohorts, all MAD cohorts, and the food-effect cohort, and ≥55% for the CYP2D6-PM cohort. Before the study, participants were not allowed to use any prescription medication within 14 days, over-the-counter medication within 7 days (except acetaminophen), or tobacco or nicotine within 3 months; in addition, they were not permitted to consume alcohol, caffeine, or grapefruit within 48 h before study check-in.
A randomization schedule was centrally generated for each cohort and treatment period. […] Study drug was administered following an overnight fast, except during the fed period in the food-effect cohort.
Single-ascending dose (SAD) cohorts. The SAD portion of the study used a randomized, double-blind, placebo-controlled, sequential, escalating-dose design, in which participants received single-ascending oral doses of the study drug. Seven cohorts were dosed in sequence (FIG. 2).
Recommendations regarding dose escalation in the SAD cohorts—and in the MAD cohorts described below—were made by the treating investigator (who was blinded to treatment group) and endorsed or not by the Dose Level Review Committee (DLRC), who were unblinded. […] Criteria for escalation included that no more than 2 participants in a dose group developed an LVEF <50% and no individual developed an LVEF <45%.
Multiple-ascending dose (MAD) cohorts. The MAD cohorts also used a randomized, double-blind, placebo-controlled, sequential design.
CYP2D6 genotypes were determined at screening for all study participants; those identified as CYP2D6-PMs were excluded from the SAD and MAD cohorts but were invited to participate in the CYP2D6-PM cohort. The first individual in the CYP2D6-PM cohort was dosed after the SAD 25-mg cohort (FIG. 2). […] Nine participants were randomized (7:2) with a sentinel dosing group consisting of the first 2 participants treated.
Food-effect cohort. […] Participants were randomized in a 1:1 ratio to 1 of 2 sequences: fasted/fed or fed/fasted.
Safety and tolerability. Safety was assessed by the incidence of adverse events (AEs) and by incidence of reduced LVEF. Treatment-emergent AEs (TEAE) were defined as AEs that began or increased after study drug administration. All AEs were coded using the Medical Dictionary for Regulatory Activities version 21.1 and graded using the National Cancer Institute Common Terminology Criteria for AEs (version 4.03) 5-point severity scale. Each AE was judged as either related or unrelated to the study drug by the treating investigator. Clinical laboratory tests were obtained at regular intervals in all cohorts.
For safety monitoring, participants in all cohorts had periodic echocardiograms, which were assessed by a cardiologist. In the SAD and MAD cohorts, echocardiograms were also reviewed by an echocardiography core laboratory for PD assessments, as described below. In addition, participants in all cohorts were monitored with continuous 12-lead ECG recording using Holter monitors. For safety monitoring, a single 12-lead ECG was extracted at screening, pre-dose, and periodically throughout follow-up, and interpreted by the investigator. […]

[2] = tested on: patients with symptomatic non-obstructive HCM (nHCM) or HCM with MVO; assay: Phase 2 trial (Example 2): exploratory responder analysis in subgroups; assay type: in vivo, human
Method: An exploratory responder analysis was performed to consider treatment effect in certain subgroups of patients.

CCc1nc(-c2ccc3c(c2)CC[C@H]3NC(=O)c2cnn(C)c2)no1 [aficamten, (R)—N-(5-(5-ethyl-1,2,4-oxadiazol-3-yl)-2,3-dihydro-1H-inden-1-yl)-1-methyl-1H-pyrazole-4-carboxamide]
Echocardiogram-related AE of decreased ejection fraction <45%: Onset (time after drug dose) ([1]; female, human): 1.4 h
QTcF ([1]; human): ≤ 450 ms
increase in QTcF interval ([1]; human): ≤ 30 ms
participants with echocardiogram-related AEs of decreased ejection fraction <45% ([1]; human): 3 participants
time to resolution of echocardiogram-related AEs of decreased ejection fraction ([1]; human): 2.5 to 4.6 h
LVEF of 1 participant after cohort expansion [1]: < 45%
decrease in LVEF of 1 participant after cohort expansion [1]: > 15%
discontinuation of the study due to AEs [1]: no participants discontinued
mean safety ECG parameters [1]: within normal limits
post-dose LVEF of sentinel participant [1]: < 45%
post-dose LVEF of the participant with LVEF <50% [1]: 46.2%
serum chemistry, hematology, or urinalysis findings [1]: No clinically significant
vital signs [1]: within normal limits
Echocardiogram-related AE of decreased ejection fraction <45%: Onset (time after drug dose) ([1]; male, human): 1.5 h
responder analysis: treatment effect in other subgroups ([2]; beta-blockers or not, elevated TnI or E/e′ or not, genetic or family history of HCM or not): Consistent treatment effects
responder analysis: treatment effect by BMI ([2]; patients with BMI ≥30 compared to BMI <30): potential differential treatment effect
